Test results as given in PubChem BioAssay (NCI).
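Tested at 5 concentrations; 48 h exposure; 96-well plates; endpoints linearly interpolated, else capped at highest concentration. Here, GI50 denotes the concentration required for 50% inhibition of growth. TGI is the concentration that stops growth completely.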

Key:
Assay in all cases: NCI anticancer screen, dose series, 48 h
HOP-92 NSCLC = test system: HOP-92 NSCLC
UO-31 renal = test system: UO-31 renal
MOLT-4 leukemia = test system: MOLT-4 leukemia
SF-539 CNS = test system: SF-539 CNS
SR leukemia = test system: SR leukemia
SK-MEL-5 melanoma = test system: SK-MEL-5 melanoma
HS 578T breast = test system: HS 578T breast
SF-295 CNS = test system: SF-295 CNS
HL-60(TB) leukemia = test system: HL-60(TB) leukemia
PC-3 prostate = test system: PC-3 prostate

CN1CCN(c2nc(NCCCCNc3ccnc4cc(Cl)ccc34)c3ccccc3n2)CC1
GI50 (HOP-92 NSCLC): 1660 nM
TGI (HOP-92 NSCLC): 4.12 µM
GI50 (UO-31 renal): 1650 nM
TGI (UO-31 renal): 3.54 µM
GI50 (MOLT-4 leukemia): 3080 nM
TGI (MOLT-4 leukemia): 20 µM
GI50 (SF-539 CNS): 1620 nM
TGI (SF-539 CNS): 3.25 µM
GI50 (SR leukemia): 2290 nM
TGI (SR leukemia): 6.27 µM
GI50 (SK-MEL-5 melanoma): 1780 nM
TGI (SK-MEL-5 melanoma): 3.19 µM
GI50 (HS 578T breast): 5480 nM
TGI (HS 578T breast): 26 µM
GI50 (SF-295 CNS): 1840 nM
TGI (SF-295 CNS): 3.73 µM
GI50 (HL-60(TB) leukemia): 1870 nM
TGI (HL-60(TB) leukemia): 4.23 µM
GI50 (PC-3 prostate): 4440 nM
TGI (PC-3 prostate): 17.6 µM

CC1=CCC(OC(=O)C(C)(C)CCC(O)(C(=O)OC2(C(C)C)CCC3(C)OC3C2)C(C)C)(C(C)C)CC1 (stereo not given)
GI50 (HOP-92 NSCLC): 371 nM
TGI (HOP-92 NSCLC): 1.57 µM
GI50 (UO-31 renal): 63.4 nM
TGI (UO-31 renal): 0.164 µM
GI50 (MOLT-4 leukemia): 131 nM
TGI (MOLT-4 leukemia): 4.99 µM
GI50 (SF-539 CNS): 707 nM
TGI (SF-539 CNS): 1.36 µM
GI50 (SR leukemia): 266 nM
TGI (SR leukemia): 1.51 µM
GI50 (SK-MEL-5 melanoma): 197 nM
TGI (SK-MEL-5 melanoma): 0.725 µM
GI50 (HS 578T breast): 735 nM
TGI (HS 578T breast): 3.57 µM
GI50 (SF-295 CNS): 690 nM
TGI (SF-295 CNS): 1.39 µM
GI50 (HL-60(TB) leukemia): 229 nM
TGI (HL-60(TB) leukemia): 7.93 µM
GI50 (PC-3 prostate): 281 nM
TGI (PC-3 prostate): 0.987 µM

COc1ccc2c(c1)c(-c1nc(-c3c[nH]c4ncccc34)cs1)cn2CCCCN1CCOCC1
GI50 (HOP-92 NSCLC): 1670 nM
TGI (HOP-92 NSCLC): 4.17 µM
GI50 (UO-31 renal): 1430 nM
TGI (UO-31 renal): 3.23 µM
GI50 (MOLT-4 leukemia): 1860 nM
TGI (MOLT-4 leukemia): 3.92 µM
GI50 (SF-539 CNS): 1670 nM
TGI (SF-539 CNS): 3.11 µM
GI50 (SR leukemia): 2010 nM
TGI (SR leukemia): 4.65 µM
GI50 (SK-MEL-5 melanoma): 1750 nM
TGI (SK-MEL-5 melanoma): 3.16 µM
GI50 (HS 578T breast): 2050 nM
TGI (HS 578T breast): 5.82 µM
GI50 (SF-295 CNS): 1930 nM
TGI (SF-295 CNS): 4.07 µM
GI50 (HL-60(TB) leukemia): 1940 nM
TGI (HL-60(TB) leukemia): 3.85 µM
GI50 (PC-3 prostate): 1750 nM
TGI (PC-3 prostate): 4.26 µM

COc1ccc(C(=O)/C=C/c2c(C(F)(F)F)nc3sccn23)cc1OC
GI50 (HOP-92 NSCLC): 5870 nM
TGI (HOP-92 NSCLC): 59.6 µM
GI50 (UO-31 renal): 8470 nM
TGI (UO-31 renal): > 100 µM
GI50 (MOLT-4 leukemia): 2220 nM
TGI (MOLT-4 leukemia): > 100 µM
GI50 (SF-539 CNS): 2360 nM
TGI (SF-539 CNS): 8.52 µM
GI50 (SR leukemia): 493 nM
TGI (SR leukemia): > 100 µM
GI50 (SK-MEL-5 melanoma): 4200 nM
TGI (SK-MEL-5 melanoma): > 100 µM
GI50 (HS 578T breast): 2510 nM
TGI (HS 578T breast): 16.8 µM
GI50 (SF-295 CNS): 3140 nM
TGI (SF-295 CNS): 22.6 µM
GI50 (HL-60(TB) leukemia): 1000 nM
TGI (HL-60(TB) leukemia): 3.86 µM
GI50 (PC-3 prostate): 5390 nM
TGI (PC-3 prostate): > 100 µM

CCc1cccc2c3c(sc12)C(c1ccc(Cl)cc1)C(C#N)=C(N)O3 (stereo not given)
GI50 (HOP-92 NSCLC): 753 nM
TGI (HOP-92 NSCLC): 6.92 µM
GI50 (UO-31 renal): 691 nM
TGI (UO-31 renal): 13.4 µM
GI50 (MOLT-4 leukemia): 590 nM
TGI (MOLT-4 leukemia): 27.6 µM
GI50 (SF-539 CNS): 360 nM
TGI (SF-539 CNS): 1.56 µM
GI50 (SR leukemia): 414 nM
TGI (SR leukemia): 31.8 µM
GI50 (SK-MEL-5 melanoma): 898 nM
TGI (SK-MEL-5 melanoma): 12 µM
GI50 (HS 578T breast): 363 nM
TGI (HS 578T breast): 2.6 µM
GI50 (SF-295 CNS): 306 nM
TGI (SF-295 CNS): 1.17 µM
GI50 (HL-60(TB) leukemia): 355 nM
TGI (HL-60(TB) leukemia): 9.48 µM
GI50 (PC-3 prostate): 390 nM
TGI (PC-3 prostate): 10.7 µM

COc1ccc(-c2nnc(SCC(=O)Nc3ccc(/C(C)=N\O)cc3)n2-c2ccccc2)cc1OC
GI50 (HOP-92 NSCLC): 2120 nM
TGI (HOP-92 NSCLC): 6.42 µM
GI50 (UO-31 renal): > 100000 nM
TGI (UO-31 renal): > 100 µM
GI50 (MOLT-4 leukemia): > 100000 nM
TGI (MOLT-4 leukemia): > 100 µM
GI50 (SF-539 CNS): 4770 nM
TGI (SF-539 CNS): 38.9 µM
GI50 (SR leukemia): > 100000 nM
TGI (SR leukemia): > 100 µM
GI50 (SK-MEL-5 melanoma): > 100000 nM
TGI (SK-MEL-5 melanoma): > 100 µM
GI50 (HS 578T breast): 3750 nM
TGI (HS 578T breast): > 100 µM
GI50 (SF-295 CNS): 3390 nM
TGI (SF-295 CNS): 37.7 µM
GI50 (HL-60(TB) leukemia): > 100000 nM
TGI (HL-60(TB) leukemia): > 100 µM
GI50 (PC-3 prostate): > 100000 nM
TGI (PC-3 prostate): > 100 µM

C/C([O-])=C1\Cc2ccccc2C1=O.C/C([O-])=C1\Cc2ccccc2C1=O.CC[O-].CC[O-].[Ti+4]
GI50 (HOP-92 NSCLC): 18700 nM
TGI (HOP-92 NSCLC): 55.4 µM
GI50 (UO-31 renal): 20200 nM
TGI (UO-31 renal): 70.6 µM
GI50 (MOLT-4 leukemia): 16500 nM
TGI (MOLT-4 leukemia): > 46.4 µM
GI50 (SF-539 CNS): 13600 nM
TGI (SF-539 CNS): 33.1 µM
GI50 (SR leukemia): 19100 nM
TGI (SR leukemia): > 79.9 µM
GI50 (SK-MEL-5 melanoma): 19300 nM
TGI (SK-MEL-5 melanoma): > 57.8 µM
GI50 (HS 578T breast): 11700 nM
TGI (HS 578T breast): 47.2 µM
GI50 (SF-295 CNS): 14500 nM
TGI (SF-295 CNS): 32 µM
GI50 (HL-60(TB) leukemia): 13100 nM
TGI (HL-60(TB) leukemia): 50.8 µM
GI50 (PC-3 prostate): 22000 nM
TGI (PC-3 prostate): 71.7 µM

COc1ccc(-c2cnnn2-c2cc(OC)c3c(c2)OCO3)cc1
GI50 (HOP-92 NSCLC): 187 nM
TGI (HOP-92 NSCLC): 24.8 µM
GI50 (UO-31 renal): 1100 nM
TGI (UO-31 renal): > 100 µM
GI50 (MOLT-4 leukemia): 266 nM
TGI (MOLT-4 leukemia): > 27.2 µM
GI50 (SF-539 CNS): 116 nM
TGI (SF-539 CNS): 0.411 µM
GI50 (SR leukemia): 46.6 nM
TGI (SR leukemia): > 51.7 µM
GI50 (SK-MEL-5 melanoma): 185 nM
TGI (SK-MEL-5 melanoma): 7.33 µM
GI50 (HS 578T breast): 186 nM
TGI (HS 578T breast): > 100 µM
GI50 (SF-295 CNS): 58.5 nM
TGI (SF-295 CNS): > 100 µM
GI50 (HL-60(TB) leukemia): 76.1 nM
TGI (HL-60(TB) leukemia): 2.72 µM
GI50 (PC-3 prostate): 167 nM
TGI (PC-3 prostate): > 100 µM

Cc1ccc2c(c1C)-c1c(ccc(C)c1C)C(=O)C2=O
TGI (HOP-92 NSCLC): 5.02 µM
TGI (UO-31 renal): 4.36 µM
TGI (MOLT-4 leukemia): 0.686 µM
TGI (SF-539 CNS): 0.42 µM
TGI (SR leukemia): 0.56 µM
TGI (SK-MEL-5 melanoma): 1.29 µM
TGI (HS 578T breast): 5.76 µM
TGI (SF-295 CNS): 2.95 µM
TGI (HL-60(TB) leukemia): 0.702 µM
TGI (PC-3 prostate): 7.3 µM

CC(CN1CCN(C)CC1)CN1c2ccccc2Sc2ccc(C(F)(F)F)cc21 (stereo not given)
GI50 (HOP-92 NSCLC): 1250 nM
TGI (HOP-92 NSCLC): 4.38 µM
GI50 (UO-31 renal): 1800 nM
TGI (UO-31 renal): 6.4 µM
GI50 (MOLT-4 leukemia): 2050 nM
TGI (MOLT-4 leukemia): 4.77 µM
GI50 (SF-539 CNS): 1670 nM
TGI (SF-539 CNS): 3.59 µM
GI50 (SR leukemia): 2010 nM
TGI (SR leukemia): 5.32 µM
GI50 (SK-MEL-5 melanoma): 1610 nM
TGI (SK-MEL-5 melanoma): 2.99 µM
GI50 (HS 578T breast): 1880 nM
TGI (HS 578T breast): 5.8 µM
GI50 (SF-295 CNS): 1970 nM
TGI (SF-295 CNS): 4.31 µM
GI50 (HL-60(TB) leukemia): 1920 nM
TGI (HL-60(TB) leukemia): 4.1 µM
GI50 (PC-3 prostate): 2090 nM
TGI (PC-3 prostate): 5.21 µM

C=CCNCCCN1C(=O)c2ccc3c4c(ccc(c24)C1=O)C(=O)N(CCCNCC=C)C3=O
GI50 (HOP-92 NSCLC): 1560 nM
TGI (HOP-92 NSCLC): 7.83 µM
GI50 (UO-31 renal): 327 nM
TGI (UO-31 renal): 2.29 µM
GI50 (MOLT-4 leukemia): 335 nM
TGI (MOLT-4 leukemia): 1.68 µM
GI50 (SF-539 CNS): 584 nM
TGI (SF-539 CNS): 2.41 µM
GI50 (SR leukemia): 407 nM
TGI (SR leukemia): 2.08 µM
GI50 (SK-MEL-5 melanoma): 182 nM
TGI (SK-MEL-5 melanoma): 0.395 µM
GI50 (HS 578T breast): 1300 nM
TGI (HS 578T breast): 5.16 µM
GI50 (SF-295 CNS): 200 nM
TGI (SF-295 CNS): 0.955 µM
GI50 (HL-60(TB) leukemia): 383 nM
TGI (HL-60(TB) leukemia): 1.41 µM
GI50 (PC-3 prostate): 589 nM
TGI (PC-3 prostate): 11 µM
